Reference: patent US11311540B2, “Increasing expression of interferon regulated genes with combinations of histone deacetylase inhibitors and immunomodulatory drugs” (ACETYLON PHARMACEUTICALS, INC., priority 2016, dated 2022)

Experiments:
[1] = system: XAF1; test: XAF1 gene expression (microarray probes); type: cell-based, human; conditions: Compound A 2, 3, 4 μM, pomalidomide 1 μM; 24 hour and 48 hour
From the text: (§1) The chip comprises a human gene expression array having more than 530,000 probes covering more than 36,000 transcripts and variants, which represent more than 20,000 genes mapped through RefSeq or via UniGene annotation. […] In the table, “A” indicates Compound A, and “Pom” indicates pomalidomide.
(§2) Each bar in each group of bars per treatment represents individual transcript probes for measuring gene expression level. […] Finally, there also appeared to be independent time components for each transcript.

[2] = system: interferon regulated genes; test: Gene Set Enrichment Analysis (GSEA) of microarray data; type: cell-based, human; conditions: single agent vs. DMSO at 48 hours (pomalidomide 1 μM; Compound A 4 μM)
Protocol: (§3) The data acquired from Example 7 was analyzed using two approaches: (1) Gene Set Enrichment Analysis (GSEA), and in the (2) Library of Integrated Network-based Cellular Signatures (LINCS) database.
(§4) The goal of the GSEA was to identify gene sets that are enriched in combination treatment over single agent treatment. […] Relevant gene sets were those that were enriched in both queries in the same direction (increased or decreased). For this analysis, the “hallmark gene sets” was chosen as the database, which comprises coherently expressed signatures derived by aggregating many molecular signatures database (MSigDB) gene sets to represent well-defined biological states or processes.

[3] = system: myc target genes; test: as above; type: cell-based, human; conditions: single agent vs. DMSO at 48 hours (pomalidomide 1 μM; Compound A 4 μM)
Protocol: as §3, §4

[4] = system: BIRC5; test: BIRC5 (survivin) gene expression (microarray probes); type: cell-based, human; conditions: Compound A 2, 3, 4 μM, pomalidomide 1 μM; 24 and 48 hours
Protocol: as §1
(§5) Finally, both effects were enhanced with time, though dose-dependence was less clear at 48 hours.

[5] = system: H929; test: Expression profiling with Affymetrix […] microarrays, number of differentially regulated genes; type: cell-based, human; conditions: pomalidomide 1 μM
From the text: as §1

[6] = Body weight and tolerability in CB17-SCID mice; type: in vivo
Protocol: Mice carrying H929 tumor xenografts were treated with DMSO, Compound B (50 mg/kg IP QD), pomalidomide (1 mg/kg IP QD), or the combination of Compound B (50 mg/kg IP QD) and pomalidomide (1 mg/kg IP QD) daily for up to 42 days.

[7] = system: CCL4; test: CCL4 gene expression (microarray probes); type: cell-based, human; conditions: Compound A 2, 3, 4 μM, pomalidomide 1 μM; 24 hour and 48 hour
From the text: as §1, §2

[8] = system: CASP1; test: CASP1 gene expression (microarray probes); type: cell-based, human; conditions: Compound A 2, 3, 4 μM, pomalidomide 1 μM; 24 and 48 hours
Protocol: as §1, §5

[9] = molecular target: T1, HDAC6 (Homo sapiens, UniProt Q9UBN7); test: HDAC6 selectivity over other HDACs; type: biochemical
T1 sequence (Q9UBN7 1-1215): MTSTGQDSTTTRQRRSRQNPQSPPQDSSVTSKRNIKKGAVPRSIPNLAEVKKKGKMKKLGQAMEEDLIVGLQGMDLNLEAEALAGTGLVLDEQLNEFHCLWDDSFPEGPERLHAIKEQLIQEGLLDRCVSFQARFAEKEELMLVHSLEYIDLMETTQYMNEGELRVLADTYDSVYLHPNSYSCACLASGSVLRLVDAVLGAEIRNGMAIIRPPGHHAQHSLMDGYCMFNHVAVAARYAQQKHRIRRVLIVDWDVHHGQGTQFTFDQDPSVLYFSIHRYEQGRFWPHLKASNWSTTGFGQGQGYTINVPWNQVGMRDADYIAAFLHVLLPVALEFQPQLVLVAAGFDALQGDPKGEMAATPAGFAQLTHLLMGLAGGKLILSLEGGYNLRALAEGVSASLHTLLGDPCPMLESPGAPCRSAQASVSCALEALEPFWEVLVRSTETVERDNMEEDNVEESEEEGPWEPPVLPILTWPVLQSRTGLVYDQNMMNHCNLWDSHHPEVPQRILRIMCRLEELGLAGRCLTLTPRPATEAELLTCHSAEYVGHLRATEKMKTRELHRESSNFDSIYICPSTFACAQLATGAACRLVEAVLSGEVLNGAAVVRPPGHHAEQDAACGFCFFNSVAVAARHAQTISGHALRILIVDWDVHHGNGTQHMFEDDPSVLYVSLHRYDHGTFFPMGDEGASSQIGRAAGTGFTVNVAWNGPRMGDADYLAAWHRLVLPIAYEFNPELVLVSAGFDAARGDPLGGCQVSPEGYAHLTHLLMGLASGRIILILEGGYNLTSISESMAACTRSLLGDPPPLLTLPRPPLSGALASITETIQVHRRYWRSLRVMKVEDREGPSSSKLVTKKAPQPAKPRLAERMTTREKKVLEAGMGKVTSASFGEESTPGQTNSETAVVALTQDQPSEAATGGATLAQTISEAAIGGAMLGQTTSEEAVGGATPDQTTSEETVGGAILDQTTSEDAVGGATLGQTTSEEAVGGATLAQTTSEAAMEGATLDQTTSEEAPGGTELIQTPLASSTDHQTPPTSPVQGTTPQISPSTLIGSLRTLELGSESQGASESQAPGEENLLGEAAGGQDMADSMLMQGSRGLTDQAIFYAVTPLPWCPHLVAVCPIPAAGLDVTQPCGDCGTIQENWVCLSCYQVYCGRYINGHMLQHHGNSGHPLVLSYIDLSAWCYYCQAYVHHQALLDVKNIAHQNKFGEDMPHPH
From the text: The synthesis of the compounds of Formula I is provided in PCT/US2011/021982, which is incorporated herein by reference in its entirety. The synthesis of compounds of Formula II is provided in PCT/US2011/060791, which is incorporated herein by reference in its entirety. The synthesis of the compounds of Formula III is provided in U.S. Pat. Nos. 5,635,517; 6,281,230; 6,335,349; and 6,476,052; and in International Patent Application No. PCT/US97/013375, each of which is incorporated herein by reference in its entirety.

[10] = system: H929 cells; test: Apoptosis by flow cytometry (Annexin V / propidium iodide); type: cell-based; conditions: 5 and 7 days, Compound A 2 μM, lenalidomide 2 μM, pomalidomide 1 μM
Protocol: Flow cytometry analysis was then used to measure the number of healthy and apoptotic cells under each treatment condition.
(§6) H929 (FIGS. 7A & 7B) or MM.1s (FIGS. 7C & 7D) myeloma cells were exposed to drug for 5 (FIGS. 7A & 7C) and 7 (FIGS. 7B & 7D) days, and apoptosis was assessed by flow cytometry by measuring Annexin V binding and cellular permeability to propidium iodide. The relative fraction of cells that were live, in early apoptosis, in late apoptosis, or dead was then determined.

[11] = system: α-tubulin; test: Acetylation of α-tubulin in H929 cells (immunoblot); type: cell-based
[12] = system: MM.1s myeloma cells; test: Apoptosis by flow cytometry (Annexin V / propidium iodide); type: cell-based; conditions: 5 and 7 days, Compound A 2 μM, lenalidomide 2 μM, pomalidomide 1 μM
Protocol: as §6

[13] = system: preclinical models of MM; conditions: in vitro and in vivo; cited from earlier work
[14] = system: H929 myeloma cells; test: Cell cycle distribution by flow cytometry (propidium iodide); type: cell-based; conditions: 3 and 5 days, Compound A 2 μM, lenalidomide 2 μM, pomalidomide 1 μM
Protocol: (§7) H929 (FIGS. 6A & 6B) or MM.1s (FIGS. 6C & 6D) myeloma cells were exposed to drug for 3 (FIGS. 6A & 6C) and 5 (FIGS. 6B & 6D) days and cell cycle distribution was assessed by flow cytometry via incorporation of propidium iodide. The relative fraction of cells in each stage of the cell cycle (G0/G1, S, and G2/M) as well as the fraction of dead cells (Sub G1) was then estimated.

[15] = system: MM.1s myeloma cells; test: as above; type: cell-based; conditions: 3 and 5 days, Compound A 2 μM, lenalidomide 2 μM, pomalidomide 1 μM
Protocol: as §7

[16] = Phase I trials; cited from earlier work

SMILES	XAF1 expression [1]	Normalized Enrichment Score (NES), interferon regulated genes [2]	Normalized Enrichment Score (NES), myc targets [3]	BIRC5 expression [4]	tolerability, body weight [6]	CCL4 expression [7]	CASP1 expression [8]	further results
Nc1cccc2c1C(=O)N(C1CCC(=O)NC1=O)C2=O (stereo not shown) [pomalidomide, reference compound]	small induction	2.87	−1.97	relatively small change	very well tolerated with no weight loss and no evidence of overt toxicity	small induction	relatively small change	number of genes with fold expression changes greater than 2 relative to vehicle: Down ([5]; 24 h): 531; number of genes with fold expression changes greater than 2 relative to vehicle: Total ([5]; 24 h): 979; number of genes with fold expression changes greater than 2 relative to vehicle: Up ([5]; 24 h): 448; number of genes with fold expression changes greater than 2 relative to vehicle: Down ([5]; 48 h): 865; number of genes with fold expression changes greater than 2 relative to vehicle: Total ([5]; 48 h): 1905; number of genes with fold expression changes greater than 2 relative to vehicle: Up ([5]; 48 h): 1040
O=C(NO)c1cnc(NC2(c3cccc(F)c3)CCCCC2)nc1 [Compound C, 2-((1-(3-fluorophenyl)cyclohexyl)amino)-N-hydroxypyrimidine-5-carboxamide]	–	–	–	–	–	–	–	selective for HDAC6 over class I HDACs [9]: more than 300 fold
O=C(CCCCCCNC(=O)c1cnc(N(c2ccccc2)c2ccccc2Cl)nc1)NO [Compound B, 2-((2-chlorophenyl)(phenyl)amino)-N-(7-(hydroxyamino)-7-oxoheptyl)pyrimidine-5-carboxamide]	–	–	–	–	very well tolerated with no weight loss and no evidence of overt toxicity	–	–	–
O=C(CCCCCCNC(=O)c1cnc(N(c2ccccc2)c2ccccc2)nc1)NO [Compound A, 2-(diphenylamino)-N-(7-(hydroxyamino)-7-oxoheptyl)pyrimidine-5-carboxamide]	consistent dose-dependent induction	2.72	−2.23	consistent dose-dependent effect	–	consistent dose-dependent induction	consistent dose-dependent effect	apoptosis [10]: small increase in apoptosis; inhibition of HDAC6: acetylation of α-tubulin [11]: hyperacetylation of α-tubulin; apoptosis [12]: small increase in apoptosis; synergy with bortezomib [13]: synergizes in vitro and in vivo with bortezomib; cell cycle distribution [14]: small reduction of cells undergoing division in S phase; cell cycle distribution [15]: small reduction of cells undergoing division in S phase; safety and tolerability profile [16]: improved safety and tolerability profile
